Results from article PMC4774911, “Biochemical Screening of Five Protein Kinases from Plasmodium falciparum against 14,000 Cell-Active Compounds” (PLoS ONE, 2016).
Where “and” joins values, the source holds several entries; their conditions need not be identical. Identical values can stand only once.

Tests used:
Assay in all cases: biochemical
Set-up in all cases: endogenous in cells; host or cells: K562 cell extract; species or system K562 (extract); replicate k of n = 2 (each experiment ID is one independent experiment; two experiment IDs per compound)
Details in all cases: read-out: KDapp
EIF2AK4 = EIF2AK4 (Homo sapiens, UniProt Q9P2K8)
Chain of EIF2AK4 (Q9P2K8 whole entry): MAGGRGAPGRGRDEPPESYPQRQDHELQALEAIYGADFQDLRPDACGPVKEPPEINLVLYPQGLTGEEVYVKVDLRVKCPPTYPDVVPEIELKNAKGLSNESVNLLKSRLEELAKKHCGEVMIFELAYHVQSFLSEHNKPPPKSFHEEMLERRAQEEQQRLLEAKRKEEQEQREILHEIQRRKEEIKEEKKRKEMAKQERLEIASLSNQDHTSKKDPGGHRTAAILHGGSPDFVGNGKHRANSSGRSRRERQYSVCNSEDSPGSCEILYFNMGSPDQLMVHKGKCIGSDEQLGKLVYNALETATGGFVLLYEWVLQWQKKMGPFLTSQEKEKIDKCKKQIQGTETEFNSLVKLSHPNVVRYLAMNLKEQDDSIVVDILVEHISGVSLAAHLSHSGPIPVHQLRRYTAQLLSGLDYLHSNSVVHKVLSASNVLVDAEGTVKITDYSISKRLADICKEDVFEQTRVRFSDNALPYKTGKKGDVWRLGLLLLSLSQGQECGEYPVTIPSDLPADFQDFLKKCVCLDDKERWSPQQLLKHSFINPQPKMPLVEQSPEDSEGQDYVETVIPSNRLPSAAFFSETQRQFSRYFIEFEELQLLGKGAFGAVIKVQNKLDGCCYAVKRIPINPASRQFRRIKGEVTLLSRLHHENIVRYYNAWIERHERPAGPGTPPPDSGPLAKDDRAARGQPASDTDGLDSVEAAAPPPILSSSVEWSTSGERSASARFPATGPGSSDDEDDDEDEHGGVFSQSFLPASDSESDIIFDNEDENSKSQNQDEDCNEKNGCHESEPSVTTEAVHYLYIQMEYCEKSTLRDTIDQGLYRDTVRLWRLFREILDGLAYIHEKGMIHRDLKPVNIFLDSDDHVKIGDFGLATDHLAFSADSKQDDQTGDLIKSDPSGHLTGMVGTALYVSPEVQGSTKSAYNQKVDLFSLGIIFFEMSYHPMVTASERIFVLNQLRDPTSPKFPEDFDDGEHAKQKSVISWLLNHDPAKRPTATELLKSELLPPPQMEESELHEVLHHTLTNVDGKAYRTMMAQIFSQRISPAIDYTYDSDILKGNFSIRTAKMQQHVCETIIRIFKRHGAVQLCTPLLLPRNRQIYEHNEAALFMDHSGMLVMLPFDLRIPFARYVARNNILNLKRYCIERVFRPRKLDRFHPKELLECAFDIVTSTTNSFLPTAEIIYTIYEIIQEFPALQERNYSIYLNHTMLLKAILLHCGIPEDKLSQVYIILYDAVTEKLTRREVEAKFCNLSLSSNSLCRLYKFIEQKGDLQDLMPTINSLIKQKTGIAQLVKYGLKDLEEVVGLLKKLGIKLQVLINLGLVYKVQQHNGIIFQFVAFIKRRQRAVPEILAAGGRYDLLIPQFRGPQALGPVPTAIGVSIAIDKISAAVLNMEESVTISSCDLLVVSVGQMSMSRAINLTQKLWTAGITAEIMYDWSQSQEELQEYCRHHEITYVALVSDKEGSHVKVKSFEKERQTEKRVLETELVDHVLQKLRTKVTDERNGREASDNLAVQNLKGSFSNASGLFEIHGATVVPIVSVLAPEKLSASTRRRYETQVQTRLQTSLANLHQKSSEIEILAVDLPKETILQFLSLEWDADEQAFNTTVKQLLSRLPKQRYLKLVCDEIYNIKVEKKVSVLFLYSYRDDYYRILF

FYN = FYN (Homo sapiens, UniProt P06241)
Chain of FYN (P06241 whole entry): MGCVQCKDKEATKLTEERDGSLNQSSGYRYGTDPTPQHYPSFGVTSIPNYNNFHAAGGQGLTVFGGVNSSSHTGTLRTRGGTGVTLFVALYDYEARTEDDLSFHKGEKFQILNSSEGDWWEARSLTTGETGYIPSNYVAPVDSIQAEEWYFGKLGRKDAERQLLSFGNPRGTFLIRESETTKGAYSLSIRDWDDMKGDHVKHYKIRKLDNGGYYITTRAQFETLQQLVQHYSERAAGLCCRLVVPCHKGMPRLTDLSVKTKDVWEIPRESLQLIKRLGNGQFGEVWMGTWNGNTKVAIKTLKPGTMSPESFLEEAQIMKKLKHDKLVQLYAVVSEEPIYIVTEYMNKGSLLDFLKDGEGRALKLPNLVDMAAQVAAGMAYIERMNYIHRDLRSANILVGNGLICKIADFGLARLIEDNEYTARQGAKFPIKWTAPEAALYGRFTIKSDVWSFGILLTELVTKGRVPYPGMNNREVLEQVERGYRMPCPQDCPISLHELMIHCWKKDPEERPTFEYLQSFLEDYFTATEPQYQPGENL

NEK1 = biological target: T1, NEK1 (Homo sapiens, UniProt Q96PY6)
T1 sequence (Q96PY6 1-1258): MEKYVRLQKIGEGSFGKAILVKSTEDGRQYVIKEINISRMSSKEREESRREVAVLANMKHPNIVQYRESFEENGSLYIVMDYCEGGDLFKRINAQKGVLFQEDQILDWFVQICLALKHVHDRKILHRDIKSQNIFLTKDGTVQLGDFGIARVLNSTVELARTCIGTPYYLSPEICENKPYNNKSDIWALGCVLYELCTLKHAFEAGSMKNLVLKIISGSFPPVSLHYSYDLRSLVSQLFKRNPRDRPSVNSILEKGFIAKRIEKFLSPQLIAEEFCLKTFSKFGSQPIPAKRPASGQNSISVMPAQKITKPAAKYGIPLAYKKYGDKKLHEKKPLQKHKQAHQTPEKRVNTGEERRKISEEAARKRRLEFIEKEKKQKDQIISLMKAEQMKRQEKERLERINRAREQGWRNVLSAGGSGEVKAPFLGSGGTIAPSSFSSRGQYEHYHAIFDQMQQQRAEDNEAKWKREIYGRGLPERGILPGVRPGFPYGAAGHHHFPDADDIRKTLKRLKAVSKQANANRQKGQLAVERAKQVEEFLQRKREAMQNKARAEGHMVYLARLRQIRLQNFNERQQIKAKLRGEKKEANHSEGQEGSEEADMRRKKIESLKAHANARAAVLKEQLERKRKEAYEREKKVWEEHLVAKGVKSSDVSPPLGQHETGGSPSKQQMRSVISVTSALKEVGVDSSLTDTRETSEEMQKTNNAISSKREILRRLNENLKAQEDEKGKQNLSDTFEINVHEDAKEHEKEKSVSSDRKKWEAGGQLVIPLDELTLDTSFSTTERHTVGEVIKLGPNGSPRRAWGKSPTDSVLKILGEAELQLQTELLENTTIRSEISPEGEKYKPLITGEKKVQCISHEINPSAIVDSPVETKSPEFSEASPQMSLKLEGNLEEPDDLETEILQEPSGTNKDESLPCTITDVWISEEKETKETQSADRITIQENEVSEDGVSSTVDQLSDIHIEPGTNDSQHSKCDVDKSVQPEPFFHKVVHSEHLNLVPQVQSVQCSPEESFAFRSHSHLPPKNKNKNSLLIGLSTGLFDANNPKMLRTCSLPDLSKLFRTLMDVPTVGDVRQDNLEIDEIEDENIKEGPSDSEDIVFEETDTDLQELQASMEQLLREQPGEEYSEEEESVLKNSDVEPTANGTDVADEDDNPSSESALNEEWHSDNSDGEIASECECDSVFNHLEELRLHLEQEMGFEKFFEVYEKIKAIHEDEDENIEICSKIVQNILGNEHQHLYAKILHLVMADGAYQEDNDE

BUB1 = BUB1 (Homo sapiens, UniProt O43683)
Chain of BUB1 (O43683 whole entry): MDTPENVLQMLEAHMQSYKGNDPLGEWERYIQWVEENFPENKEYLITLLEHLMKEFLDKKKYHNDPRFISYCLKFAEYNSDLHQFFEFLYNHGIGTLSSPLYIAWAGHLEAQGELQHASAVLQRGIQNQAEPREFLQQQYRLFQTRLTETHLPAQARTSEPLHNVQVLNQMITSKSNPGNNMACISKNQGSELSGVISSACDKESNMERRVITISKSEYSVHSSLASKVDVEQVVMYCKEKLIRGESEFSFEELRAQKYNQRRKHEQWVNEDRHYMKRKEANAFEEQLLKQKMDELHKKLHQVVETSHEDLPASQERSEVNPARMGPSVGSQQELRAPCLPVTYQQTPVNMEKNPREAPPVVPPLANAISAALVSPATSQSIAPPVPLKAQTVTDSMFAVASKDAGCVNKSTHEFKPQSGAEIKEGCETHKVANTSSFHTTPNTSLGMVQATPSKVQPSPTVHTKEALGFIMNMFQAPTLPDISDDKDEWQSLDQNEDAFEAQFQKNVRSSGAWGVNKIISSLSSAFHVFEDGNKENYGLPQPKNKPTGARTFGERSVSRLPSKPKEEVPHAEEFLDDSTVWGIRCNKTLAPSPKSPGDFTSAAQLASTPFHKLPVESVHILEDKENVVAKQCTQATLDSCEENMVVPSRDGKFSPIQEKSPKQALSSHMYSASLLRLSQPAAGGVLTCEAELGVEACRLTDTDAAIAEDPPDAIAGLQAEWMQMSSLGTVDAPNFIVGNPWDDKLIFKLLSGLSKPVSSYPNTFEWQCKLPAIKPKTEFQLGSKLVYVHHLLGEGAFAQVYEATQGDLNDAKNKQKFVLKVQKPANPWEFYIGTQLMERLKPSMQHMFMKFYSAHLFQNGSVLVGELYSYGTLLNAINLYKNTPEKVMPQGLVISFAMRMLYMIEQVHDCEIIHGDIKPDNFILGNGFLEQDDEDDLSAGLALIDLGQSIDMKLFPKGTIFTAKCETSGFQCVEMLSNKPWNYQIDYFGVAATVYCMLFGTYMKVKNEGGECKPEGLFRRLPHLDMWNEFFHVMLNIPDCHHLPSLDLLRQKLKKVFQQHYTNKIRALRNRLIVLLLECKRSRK

PIP4K2B = biological target: T2, PIP4K2B (Homo sapiens, UniProt P78356)
T2 sequence (P78356 1-416): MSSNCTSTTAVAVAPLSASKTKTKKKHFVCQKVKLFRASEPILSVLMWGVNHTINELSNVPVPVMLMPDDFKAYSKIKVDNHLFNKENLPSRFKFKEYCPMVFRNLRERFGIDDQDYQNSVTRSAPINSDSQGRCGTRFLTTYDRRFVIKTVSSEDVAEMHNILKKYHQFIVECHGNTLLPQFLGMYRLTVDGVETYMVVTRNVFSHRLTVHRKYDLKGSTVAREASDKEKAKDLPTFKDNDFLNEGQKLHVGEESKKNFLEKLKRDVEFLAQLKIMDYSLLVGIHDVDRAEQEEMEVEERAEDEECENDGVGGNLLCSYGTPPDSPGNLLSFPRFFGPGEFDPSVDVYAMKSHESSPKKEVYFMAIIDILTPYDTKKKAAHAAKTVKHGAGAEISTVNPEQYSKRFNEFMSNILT

MAP2K2 = MAP2K2 (Homo sapiens, UniProt P36507)
Chain of MAP2K2 (P36507 whole entry): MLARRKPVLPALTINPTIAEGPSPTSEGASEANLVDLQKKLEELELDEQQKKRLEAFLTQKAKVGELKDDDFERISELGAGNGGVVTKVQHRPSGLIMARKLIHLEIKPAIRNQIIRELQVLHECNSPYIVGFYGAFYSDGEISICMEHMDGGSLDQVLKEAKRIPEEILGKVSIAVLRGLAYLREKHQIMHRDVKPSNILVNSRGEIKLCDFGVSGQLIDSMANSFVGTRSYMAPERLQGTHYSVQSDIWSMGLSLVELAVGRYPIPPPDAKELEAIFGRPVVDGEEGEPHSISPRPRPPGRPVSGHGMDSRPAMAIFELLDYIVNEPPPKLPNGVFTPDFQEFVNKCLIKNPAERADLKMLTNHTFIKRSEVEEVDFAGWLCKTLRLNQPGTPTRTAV

PTK2B = PTK2B (Homo sapiens, UniProt Q14289)
Chain of PTK2B (Q14289 whole entry): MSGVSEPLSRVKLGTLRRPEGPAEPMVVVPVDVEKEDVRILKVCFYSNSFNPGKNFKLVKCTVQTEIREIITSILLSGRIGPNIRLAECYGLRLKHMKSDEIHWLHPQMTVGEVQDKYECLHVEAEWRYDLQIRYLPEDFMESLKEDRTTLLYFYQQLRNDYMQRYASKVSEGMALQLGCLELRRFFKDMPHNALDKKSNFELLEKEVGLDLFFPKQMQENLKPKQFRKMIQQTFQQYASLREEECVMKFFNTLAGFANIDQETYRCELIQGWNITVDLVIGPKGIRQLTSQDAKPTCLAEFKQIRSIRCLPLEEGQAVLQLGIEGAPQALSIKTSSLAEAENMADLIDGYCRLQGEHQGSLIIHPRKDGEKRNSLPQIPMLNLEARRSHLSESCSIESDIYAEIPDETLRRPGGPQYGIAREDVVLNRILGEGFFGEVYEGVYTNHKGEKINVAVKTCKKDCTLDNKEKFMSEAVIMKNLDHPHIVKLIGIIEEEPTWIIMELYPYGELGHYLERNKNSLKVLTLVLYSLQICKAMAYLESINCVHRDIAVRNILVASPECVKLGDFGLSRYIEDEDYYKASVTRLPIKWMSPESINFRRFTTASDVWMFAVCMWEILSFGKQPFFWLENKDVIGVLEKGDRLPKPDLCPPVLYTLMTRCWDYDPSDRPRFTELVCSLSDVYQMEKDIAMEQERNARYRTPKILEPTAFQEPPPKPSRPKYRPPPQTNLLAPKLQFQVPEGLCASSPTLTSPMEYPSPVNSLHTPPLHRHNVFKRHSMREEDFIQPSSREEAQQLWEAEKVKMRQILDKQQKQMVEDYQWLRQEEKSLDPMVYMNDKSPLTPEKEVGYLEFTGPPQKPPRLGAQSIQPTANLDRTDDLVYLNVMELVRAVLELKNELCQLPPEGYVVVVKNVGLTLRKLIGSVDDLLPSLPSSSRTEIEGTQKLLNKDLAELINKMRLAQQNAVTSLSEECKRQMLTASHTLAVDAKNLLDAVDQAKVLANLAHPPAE

CSNK2A1 = CSNK2A1 (Homo sapiens, UniProt P68400)
Chain of CSNK2A1 (P68400 whole entry): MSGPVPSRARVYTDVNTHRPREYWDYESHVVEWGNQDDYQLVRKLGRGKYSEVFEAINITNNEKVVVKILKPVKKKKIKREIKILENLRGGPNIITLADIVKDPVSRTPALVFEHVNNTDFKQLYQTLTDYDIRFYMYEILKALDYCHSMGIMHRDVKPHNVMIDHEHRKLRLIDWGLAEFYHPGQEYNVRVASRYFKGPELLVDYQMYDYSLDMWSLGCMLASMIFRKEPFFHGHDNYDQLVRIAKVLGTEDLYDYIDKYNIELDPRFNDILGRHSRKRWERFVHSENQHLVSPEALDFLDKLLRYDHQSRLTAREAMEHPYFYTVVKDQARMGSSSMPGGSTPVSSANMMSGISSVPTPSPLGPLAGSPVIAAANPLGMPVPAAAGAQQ

MINK1 = MINK1 (Homo sapiens, UniProt Q8N4C8)

**Q.** For `CN1CCN(c2ccc(Nc3ncc(C#N)c(Nc4ccccc4C(N)=O)n3)cc2)CC1.Cl` [TCMDC-134116], which Kd (EIF2AK4) is on record?
**A.** Its Kd is 168 nM and 147 nM.

**Q.** What about the Kd (FYN) of the same compound?
**A.** Its Kd is 107 nM and 85.4 nM.

**Q.** And the Kd (NEK1)?
**A.** The Kd was 404 nM and 333 nM.

**Q.** And the Kd (BUB1)?
**A.** The Kd was 127 nM and 110 nM.

**Q.** And the Kd (PIP4K2B)?
**A.** The Kd was 1130 nM and 705 nM.

**Q.** What about the Kd (MAP2K2) of the same compound?
**A.** The Kd was 727 nM and 858 nM.

**Q.** And the Kd (PTK2B)?
**A.** Its Kd is 28.1 nM and 35.3 nM.

**Q.** What about the Kd (CSNK2A1) of the same compound?
**A.** Its Kd is 23.5 nM.

**Q.** What about the Kd (MINK1) of the same compound?
**A.** Its Kd is 173 nM.

**Q.** For `Cl.NCC1(c2nc(-c3ccc(Cl)c(O)c3)c(-c3ccncc3)[nH]2)CCCCC1` [TCMDC-141154], which Kd (FYN) is on record?
**A.** The Kd was 67.6 nM and 60.5 nM.

**Q.** What about the Kd (BUB1) of the same compound?
**A.** The Kd was 82.5 nM and 58.4 nM.

**Q.** And the Kd (MAP2K2)?
**A.** Its Kd is 7880 nM.

**Q.** And the Kd (MINK1)?
**A.** The Kd was 837 nM.

**Q.** For `CN(C)CC(O)COc1ccc(Nc2ncc([N+](=O)[O-])c(Nc3ccccc3O)n2)cc1.O=C(O)C(F)(F)F` (stereo not drawn) [TCMDC-141399], which Kd (EIF2AK4) is on record?
**A.** Its Kd is 182 nM and 245 nM.

**Q.** What about the Kd (NEK1) of the same compound?
**A.** Its Kd is 4540 nM.

**Q.** And the Kd (PIP4K2B)?
**A.** Its Kd is 684 nM and 987 nM.

**Q.** What about the Kd (PTK2B) of the same compound?
**A.** The Kd was 128 nM and 175 nM.

**Q.** What about the Kd (CSNK2A1) of the same compound?
**A.** The Kd was 63.5 nM.
